Source: patent US5430028A, “5-aminoquinolone carboxylic acid derivative and antibacterial agent containing the same as active ingredient” (SS Pharmaceutical Co., Ltd., priority 1992, dated 1995)
Converted amounts (≈) assume the structure as drawn.

What was measured:
Assay in all cases: Antibacterial test (MIC), The Japan Chemotherapeutic Association method
[1] = test system: Bacillus subtilis ATCC 6633; type: cell-based; conditions: ATCC6633, Mueller Hinton Medium, 10^6 /ml, 37° C., determined after 24 hours
Procedure: (§1) Antibacterial activities against microorganisms shown in Tables 1-3 were measured according to the MIC measurement method of The Japan Chemotherapeutic Association. Sparfloxacin was used as a control agent.
(§2) Medium: Mueller Hinton Medium
(§3) A 1,000 micrograms/ml solution in 25% dimethylsulfoxide was prepared. A series of solutions with various concentrations (100 micrograms to 0.006 micrograms) were prepared by successively diluting the solution with sterilized water by a factor of 1/2.
(§4) Amount of inoculated bacteria: 10^6 /ml
(§5) Cultivation conditions: 37° C., 48 hours
(§6) Determination: After 24 hours.

[2] = test system: Escherichia coli K-12; type: cell-based; conditions: K12, Mueller Hinton Medium, 10^6 /ml, 37° C., determined after 24 hours
Procedure: as §1, §2, §3, §4, §5, §6

[3] = test system: Escherichia coli O-1; type: cell-based; conditions: O1, Mueller Hinton Medium, 10^6 /ml, 37° C., determined after 24 hours
Procedure: as §1, §2, §3, §4, §5, §6

[4] = test system: Klebsiella pneumoniae ATCC 10031; type: cell-based; conditions: ATCC10031, Mueller Hinton Medium, 10^6 /ml, 37° C., determined after 24 hours
Procedure: as §1, §2, §3, §4, §5, §6

[5] = test system: Klebsiella pneumoniae IFO 13541; type: cell-based; conditions: IFO13541, Mueller Hinton Medium, 10^6 /ml, 37° C., determined after 24 hours
Procedure: as §1, §2, §3, §4, §5, §6

[6] = test system: Micrococcus lysodeikticus IFO 3333; type: cell-based; conditions: Micrococcus luteus, IFO3333, Mueller Hinton Medium, 10^6 /ml, 37° C., determined after 24 hours
Procedure: as §1, §2, §3, §4, §5, §6

[7] = test system: Proteus rettgeri; type: cell-based; conditions: Providencia rettgeri, Mueller Hinton Medium, 10^6 /ml, 37° C., determined after 24 hours
Procedure: as §1, §2, §3, §4, §5, §6

[8] = test system: Proteus vulgaris OXK; type: cell-based; conditions: Mueller Hinton Medium, 10^6 /ml, 37° C., determined after 24 hours
Procedure: as §1, §2, §3, §4, §5, §6

[9] = test system: Pseudomonas aeruginosa IFO 12582; type: cell-based; conditions: IFO12582, Mueller Hinton Medium, 10^6 /ml, 37° C., determined after 24 hours
Procedure: as §1, §2, §3, §4, §5, §6

[10] = test system: Pseudomonas aeruginosa IFO 13736; type: cell-based; conditions: IFO13736, Mueller Hinton Medium, 10^6 /ml, 37° C., determined after 24 hours
Procedure: as §1, §2, §3, §4, §5, §6

[11] = test system: Pseudomonas aeruginosa P2; type: cell-based; conditions: Mueller Hinton Medium, 10^6 /ml, 37° C., determined after 24 hours
Procedure: as §1, §2, §3, §4, §5, §6

[12] = test system: Salmonella typhi TD; type: cell-based; conditions: Salmonella enterica, 24 h
Procedure: as §1, §2, §3, §4, §5, §6

[13] = test system: Sarcina lutea ATCC 9341; type: cell-based; conditions: Micrococcus luteus, ATCC9341, Mueller Hinton Medium, 10^6 /ml, 37° C., determined after 24 hours
Procedure: as §1, §2, §3, §4, §5, §6

[14] = test system: Serratia marcescens NHL; type: cell-based; conditions: Mueller Hinton Medium, 10^6 /ml, 37° C., determined after 24 hours
Procedure: as §1, §2, §3, §4, §5, §6

[15] = test system: Shigella flexneri 2b; type: cell-based; conditions: Mueller Hinton Medium, 10^6 /ml, 37° C., determined after 24 hours
Procedure: as §1, §2, §3, §4, §5, §6

[16] = test system: Staphylococcus aureus FDA 209P; type: cell-based; conditions: FDA209P, Mueller Hinton Medium, 10^6 /ml, 37° C., determined after 24 hours
Procedure: as §1, §2, §3, §4, §5, §6

[17] = test system: Staphylococcus aureus Smith; type: cell-based; conditions: Mueller Hinton Medium, 10^6 /ml, 37° C., determined after 24 hours
Procedure: as §1, §2, §3, §4, §5, §6

[18] = test system: Staphylococcus aureus Terashima; type: cell-based; conditions: Mueller Hinton Medium, 10^6 /ml, 37° C., determined after 24 hours
Procedure: as §1, §2, §3, §4, §5, §6

[19] = test system: Staphylococcus epidermidis ATCC 12228; type: cell-based; conditions: ATCC12228, Mueller Hinton Medium, 10^6 /ml, 37° C., determined after 24 hours
Procedure: as §1, §2, §3, §4, §5, §6

[20] = test system: Streptococcus faecalis IFO 12964; type: cell-based; conditions: Enterococcus faecalis, IFO12964, Mueller Hinton Medium, 10^6 /ml, 37° C., determined after 24 hours
Procedure: as §1, §2, §3, §4, §5, §6

[21] = test system: M. R. Staphylococcus aureus 395; type: cell-based, Methicillin-resistant Staphylococcus aureus; conditions: M. R. Staphylococcus aureus 395 (MRSA); Mueller Hinton Medium, 10^6 /ml, 37° C., determined after 24 hours
Procedure: as §1, §2, §3, §4, §5, §6

[22] = test system: M. R. Staphylococcus aureus 415; type: cell-based, Methicillin-resistant Staphylococcus aureus; conditions: M. R. Staphylococcus aureus 415 (MRSA); Mueller Hinton Medium, 10^6 /ml, 37° C., determined after 24 hours
Procedure: as §1, §2, §3, §4, §5, §6

[23] = test system: M. R. Staphylococcus aureus 419; type: cell-based, Methicillin-resistant Staphylococcus aureus; conditions: M. R. Staphylococcus aureus 419 (MRSA); Mueller Hinton Medium, 10^6 /ml, 37° C., determined after 24 hours
Procedure: as §1, §2, §3, §4, §5, §6

[24] = test system: M. R. Staphylococcus aureus 420; type: cell-based, Methicillin-resistant Staphylococcus aureus; conditions: M. R. Staphylococcus aureus 420 (MRSA); Mueller Hinton Medium, 10^6 /ml, 37° C., determined after 24 hours
Procedure: as §1, §2, §3, §4, §5, §6

[25] = test system: M. R. Staphylococcus aureus 421; type: cell-based, Methicillin-resistant Staphylococcus aureus; conditions: M. R. Staphylococcus aureus 421 (MRSA); Mueller Hinton Medium, 10^6 /ml, 37° C., determined after 24 hours
Procedure: as §1, §2, §3, §4, §5, §6

SMILES | MIC [1] [µg/mL] | MIC [2] [µg/mL] | MIC [3] [µg/mL] | MIC [4] [µg/mL] | MIC [5] [µg/mL] | MIC [6] [µg/mL] | MIC [7] [µg/mL] | MIC [8] [µg/mL] | MIC [9] [µg/mL] | MIC [10] [µg/mL] | MIC [11] [µg/mL] | MIC [12] [µg/mL] | MIC [13] [µg/mL] | MIC [14] [µg/mL] | MIC [15] [µg/mL] | MIC [16] [µg/mL] | MIC [17] [µg/mL] | MIC [18] [µg/mL] | MIC [19] [µg/mL] | MIC [20] [µg/mL] | also measured
CN1CCN(c2c(F)c(N)c3c(=O)c(C(=O)O)cn(C4CC4)c3c2F)CCC1=O [1-8, 5-Amino-1-cyclopropyl-6,8-difluoro-7-(4-methyl-2,3,4,5,6,7-hexahydro-1H-1,4-diazepin-5-on-1-yl)-1,4-dihydro-4-oxoquinoline-3-carboxylic acid] | 0.006 (≈ 0.0148 µM) | 0.1 (≈ 0.246 µM) | 0.1 (≈ 0.246 µM) | 0.006 (≈ 0.0148 µM) | 0.1 (≈ 0.246 µM) | 0.1 (≈ 0.246 µM) | 0.39 (≈ 0.96 µM) | 0.1 (≈ 0.246 µM) | 6.25 (≈ 15.4 µM) | 3.13 (≈ 7.7 µM) | 12.5 (≈ 30.8 µM) | 0.1 (≈ 0.246 µM) | 0.39 (≈ 0.96 µM) | 1.56 (≈ 3.84 µM) | 0.006 (≈ 0.0148 µM) | 0.006 (≈ 0.0148 µM) | 0.012 (≈ 0.0295 µM) | 0.05 (≈ 0.123 µM) | 0.1 (≈ 0.246 µM) | 0.2 (≈ 0.492 µM) | MIC [21]: 0.05 µg/mL (≈ 0.123 µM); MIC [22]: 0.024 µg/mL (≈ 0.0591 µM); MIC [23]: 0.024 µg/mL (≈ 0.0591 µM); MIC [24]: 0.05 µg/mL (≈ 0.123 µM); MIC [25]: 0.024 µg/mL (≈ 0.0591 µM)
Nc1c(F)c(N2CCNC(=O)CC2)c(Cl)c2c1c(=O)c(C(=O)O)cn2C1CC1 [1-10, 5-Amino-8-chloro-1-cyclopropyl-6-fluoro-7-(2,3,4,5,6,7-hexahydro-1H-1,4-diazepin-5-on-1-yl)-4-oxo-quinoline-3-carboxylic acid] | 0.012 (≈ 0.0294 µM) | 0.1 (≈ 0.245 µM) | 0.1 (≈ 0.245 µM) | 0.05 (≈ 0.122 µM) | 0.1 (≈ 0.245 µM) | 0.05 (≈ 0.122 µM) | 0.78 (≈ 1.91 µM) | 0.2 (≈ 0.489 µM) | 3.13 (≈ 7.66 µM) | 6.25 (≈ 15.3 µM) | 12.5 (≈ 30.6 µM) | 0.1 (≈ 0.245 µM) | 0.2 (≈ 0.489 µM) | 1.56 (≈ 3.82 µM) | 0.006 (≈ 0.0147 µM) | 0.012 (≈ 0.0294 µM) | 0.006 (≈ 0.0147 µM) | 0.1 (≈ 0.245 µM) | 0.024 (≈ 0.0587 µM) | 0.2 (≈ 0.489 µM) | MIC [21]: 0.024 µg/mL (≈ 0.0587 µM); MIC [22]: 0.012 µg/mL (≈ 0.0294 µM); MIC [23]: 0.024 µg/mL (≈ 0.0587 µM); MIC [24]: 0.012 µg/mL (≈ 0.0294 µM); MIC [25]: 0.024 µg/mL (≈ 0.0587 µM)
Nc1c(F)c(N2CCNC(=O)CC2)c(F)c2c1c(=O)c(C(=O)O)cn2C1CC1 [Compound No. 1-2, 5-Amino-1-cyclopropyl-6,8-difluoro-7-(2,3,4,5,6,7-hexahydro-1H-1,4-diazepin-5-on-1-yl)-1,4-dihydro-4-oxo-quinoline-3-carboxylic acid] | 0.006 (≈ 0.0153 µM) | 0.05 (≈ 0.127 µM) | 0.05 (≈ 0.127 µM) | 0.006 (≈ 0.0153 µM) | 0.05 (≈ 0.127 µM) | 0.05 (≈ 0.127 µM) | 0.39 (≈ 0.994 µM) | 0.05 (≈ 0.127 µM) | 3.13 (≈ 7.98 µM) | 3.13 (≈ 7.98 µM) | 6.25 (≈ 15.9 µM) | 0.05 (≈ 0.127 µM) | 0.39 (≈ 0.994 µM) | 0.78 (≈ 1.99 µM) | 0.006 (≈ 0.0153 µM) | 0.012 (≈ 0.0306 µM) | 0.006 (≈ 0.0153 µM) | 0.05 (≈ 0.127 µM) | 0.05 (≈ 0.127 µM) | 0.2 (≈ 0.51 µM) | MIC [21]: 0.05 µg/mL (≈ 0.127 µM); MIC [22]: 0.024 µg/mL (≈ 0.0612 µM); MIC [23]: 0.024 µg/mL (≈ 0.0612 µM); MIC [24]: 0.05 µg/mL (≈ 0.127 µM); MIC [25]: 0.012 µg/mL (≈ 0.0306 µM)
C[C@@H]1CN(c2c(F)c(N)c3c(=O)c(C(=O)O)cn(C4CC4)c3c2F)C[C@H](C)N1 [Spafloxacin, reference compound] | 0.024 (≈ 0.0612 µM) | 0.012 (≈ 0.0306 µM) | 0.012 (≈ 0.0306 µM) | 0.006 (≈ 0.0153 µM) | 0.012 (≈ 0.0306 µM) | 0.39 (≈ 0.994 µM) | 0.1 (≈ 0.255 µM) | 0.05 (≈ 0.127 µM) | 1.56 (≈ 3.98 µM) | 0.78 (≈ 1.99 µM) | 1.56 (≈ 3.98 µM) | 0.006 (≈ 0.0153 µM) | 1.56 (≈ 3.98 µM) | 0.2 (≈ 0.51 µM) | 0.006 (≈ 0.0153 µM) | 0.024 (≈ 0.0612 µM) | 0.05 (≈ 0.127 µM) | 0.1 (≈ 0.255 µM) | 0.2 (≈ 0.51 µM) | 0.39 (≈ 0.994 µM) | MIC [21]: 0.1 µg/mL (≈ 0.255 µM); MIC [22]: 0.05 µg/mL (≈ 0.127 µM); MIC [23]: 0.05 µg/mL (≈ 0.127 µM); MIC [24]: 0.1 µg/mL (≈ 0.255 µM); MIC [25]: 0.05 µg/mL (≈ 0.127 µM)
